Measured values reported in US7863446B2, “Heterocycles” (Orchid Research Laboratories Limited, priority 2006, dated 2011).

Test system: TNF-α
Assay: LPS induced sepsis for measurement of TNF-α inhibition in mice
Type: in vivo
Conditions: 50 mg/kg, oral, mice, serum 90 minutes after LPS
Method: LPS Induced Sepsis for Measurement of TNF-α Inhibition in Mice
The LPS induced sepsis model in mice was performed as described by Les sekut et al (J Lab Clin Med 1994; 124:813-20). Female Swiss albino mice were selected and the body weights were equivalent within each group. The mice were fasted for 20 hours with free access to water. The mice were dosed orally with the test compound suspended in vehicle containing 0.5% Tween 80 in 0.25% Carboxy-methylcellulose sodium salt. The control mice were administered the vehicle alone. After 30 minutes of oral dosing, mice were injected with 500 μg of Lipopolysaccharide (Escherichia coli, LPS: B4 from Siga) in phosphate buffer saline solution into the intraperitoneal cavity of the mice. After 90 minutes of LPS administration mice were bled via retro-orbital sinus puncture. Blood samples were stored overnight at 4° C. Serum samples were collected by centrifuging the samples at 4000 rpm for 15 minutes at 4° C. Immediately the serum samples were analysed for TNF-α levels using commercially available mouse TNF-α ELISA kit (Amersham Biosciences) and assay was performed by the manufacturer instruction.
ED50 Measurement of TNF alpha Inhibition in Mice Sepsis Model

SMILES: CNS(=O)(=O)c1ccc(-c2c(Cl)nc(C(F)(F)F)nc2-c2ccc(S(C)(=O)=O)cc2)cc1 [Example 4, 4-{4-Chloro-6-[4-(methylsulfonyl)phenyl]-2-(trifluoromethyl)pyrimidin-5-yl}-N-methylbenzenesulfonamide]
- TNF-α Inhibition (%) at 50 mg/kg: 38.37%
